# Results from patent US8785388B2, “TAT-BH3 methods for treating arthritis” (Saint Louis University, priority 2007, dated 2014).
# Square brackets hold non-standard residues; d marks the D form. Peptide text beside a SMILES is read from it. Orn = NCCC[C@H](N)C(=O)O
# Columns and labels:
# [1] = Toxicity: serum ALP, AST, ALT, blood urea nitrogen and liver histology in arthritic mice; format: in vivo
# Experimental: (§1) At each time point and prior to euthanasia, the degree of arthritis as indicated by joint swelling was quantitated by measuring two perpendicular diameters of the ankles using a caliper (Lange Caliper: Cambridge Scientific Industries, Cambridge Mass.). Joint circumference was calculated using the geometric formula of ellipse circumference (2πX √(a^2+b^2)/2). Following euthanasia, serum was isolated from peripheral blood by cardiac stick and ankle joints were removed. One of the ankle joints was fixed in 10% neutral buffered formalin for 24 hours, decalcified in EDTA-decalcification buffer for two weeks, embedded in paraffin, and sectioned. The other ankle joint was placed in liquid nitrogen, grounded into a fine powder by mortal and pestle, digested in protein lysis buffer ([…], 0.5% NP-40, 50 mM Tris, and 2 mM EDTA) in the presence of phosphatase and protease inhibitors, and homogenized on ice for 20 seconds. To examine any toxicity due to systemic delivery of TAT-Bim peptides, alkaline phosphatase (ALP), […] (AST), alanine aminotransferase (ALT), and blood urea nitrogen levels were measured.
# Paraffin embedded ankle or liver sections were stained with hematoxylin and eosin (H&E), Safranin O and methyl green. Histopathological scoring was performed and ankle sections were evaluated by examining at least 3 sections/ankle and 3 fields/section at 400× magnification. H&E ankle sections were scored on a 0-5 scale for inflammation, with 0=normal, 1=minimal infiltration, 2=mild infiltration, 3=moderate infiltration, […], mad 5=severe infiltration. Bone erosion was scored on a 0-5 scale by viewing H&E ankle sections, with 0=no or normal bone resorption, 1=small areas of resorption, 2=more numerous areas of resorption, 3=obvious resorption, 4=full thickness defects in the bone without distortion of the profile, 5=full thickness defects in the bone with distortion of the profile. H&E ankle stained sections were scored on a 0-5 scale for pannus formation, with 0=no pannus formation, 1=minimal pannus formation, 2=mild pannus formation, 3=moderate pannus formation, 4=marked pannus formation, and 5=severe pannus formation. H&E and Safranin 0 and methyl green sections were scored on a 0-5 scale for cartilage damage, with 0=no damage, 1-2=superficial cartilage destruction, 3-4=cartilage destruction to middle zone, 5=cartilage destruction to tide mark. Polymorphonuclear (PMN) leukocyte infiltration: 0=no PMNs, 1=rare scattered PMNs, 2=more frequent scattered PMNs, 3=small clusters of PMNs, 4=larger clusters of PMNs, mad 5=sheets of PMNs (abscess). Histopathological scoring was conducted on an Olympus BX40 microscope (1000×). Photographs were taken on a Nikon microscope equipped with the Nikon digital camera DMX 1200.
# peripheral blood cells [2] = test: Peripheral blood cell counts (flow cytometry, hematology analyzer); format: in vivo, mice
# Experimental: Peripheral blood and bone marrow were isolated from mice following euthanasia. Total leukocyte numbers were determined using an automated hematology analyzer ABX Pentra 60 (Diamond Diagnostics, Inc, Holliston, Mass.). The red blood cells in peripheral blood were lysed and the remaining cells were fixed with BD FACS lysing solution (BD Biosciences, Pharmingen) following incubation with antibodies. Bone marrow cells were isolated by flushing Dulbecco's Modified Eagle Medium (DMEM) (Gibco, Grand Island, N.Y.) through the tibias and red blood cells were lysed with BD PharM Lyse (BD Biosciences, Pharmingen) prior to incubation with antibodies. Cells with incubated with Fc Block (BD Biosciences, Pharmingen) then stained with fluorochrome conjugated antibodies to CD45, CD11b, Gr-1, CD62L, Ly-6C, Ly-6G, CD31 (BD Biosciences, Pharmingen) or isotype control antibodies for 30 minutes. Cells were acquired on a BD LSRII (BD Biosciences, Pharmingen) using Diva Software at the Saint Louis University Core Flow Cytometry Facility. All analysis was performed using FlowJo software (Tree Star Inc.).
# Peripheral blood was isolated by cardiac sticks. Cells were blocked for 10 minutes with Fc block and then stained with anti-CD45, anti-CD19, anti-CD3, anti-CD4, anti-CDS, anti-CD11b, anti-Gr-1, and anti-CD62L antibodies for 30 minutes. Platelets and RBCs were determined on an automated hematology analyzer ABX Pentra 60. Following incubation with antibodies red blood cells were lysed and cells were fixed with Becton Dickenson FACS lysing solution.
# [3] = system: IL-1β, TNFα, MCP-1, KC, MMP-3; test: ELISA of pro-inflammatory molecules in ankle extracts; format: in vivo, mouse; set-up: IL-1β / TNFα / MCP-1 / KC / MMP-3: unit not given here; details: ankle joints
# Experimental: as §1
# For detection of mouse IL-1β, TNFα, MCP-1, KC, or MMP-3 in ankle extracts, sandwich ELISAs were performed according to the manufacturer's instructions (R & D Systems, Minneapolis, Minn.). The sensitivity for all cytokines was 15.6 pg/mL for IL-1β and KC, 7.813 pg/mL for TNFα and MCP-1, and 0.312 ng/mL for MMP3. ELISAs were quantitated by absorbance at 450 nm on a microplate reader (BioRad, Hercules, Calif.). Data obtained using ELISA on ankle extracts were normalized by the total protein concentration (μg/μL) for each individual ankle extract.
# Mice were euthanized at seven days post-serum transfer. Ankle joints from each mouse were isolated, snap frozen, grounded into a fine powder, lysed, and examined for IL-1β, TNFα, MCP-1, KC, and MMP-3 production using an ELISA. Data are shown as μg/μL per joint. Values represent the mean±standard error, which were compared by Student's t-test.
# peripheral blood cells [4] = test: Peripheral blood cell counts (flow cytometry, hematology analyzer); format: in vivo, mice; details: as compared to TAT-inactive BH3 and saline
# [5] = TAT-BH3 vs TAT-inactive BH3 and saline
# [6] = as compared to TAT-inactive BH3
# [7] = as compared to TAT-inactive BH3 and saline
# [8] = peripheral blood, hematology analyzer, mean ± standard error
# [9] = peripheral blood, mean ± standard error
# [10] = seven days post-serum transfer, mean ± standard error
smiles,measurement,setting,value
CC[C@H](C)[C@H](NC(=O)[C@H](CCCNC(=N)N)NC(=O)[C@H](CCCNC(=N)N)NC(=O)[C@H](CC(C)C)NC(=O)[C@H](CCC(=O)O)NC(=O)[C@H](CCC(N)=O)NC(=O)[C@H](C)NC(=O)[C@@H](NC(=O)[C@H](Cc1c[nH]c2ccccc12)NC(=O)[C@@H](NC(=O)[C@H](CCC(=O)O)NC(=O)[C@H](CCCNC(=N)N)NC(=O)[C@H](CCCNC(=N)N)NC(=O)[C@H](CCCNC(=N)N)NC(=O)[C@H](CCCN)NC(=O)[C@H](CCCNC(=N)N)NC(=O)[C@H](CCCNC(=N)N)NC(=O)[C@H](CCCCN)NC(=O)[C@H](CCCCN)NC(=O)[C@H](CCCNC(=N)N)NC(C)=O)[C@@H](C)CC)[C@@H](C)CC)C(=O)NCC(=O)N[C@@H](CC(=O)O)C(=O)N[C@@H](CCC(=O)O)C(=O)N[C@@H](Cc1ccccc1)C(=O)N[C@@H](CC(N)=O)C(=O)N[C@@H](C)C(=O)N[C@@H](Cc1ccc(O)cc1)C(=O)N[C@@H](Cc1ccc(O)cc1)C(=O)N[C@@H](C)C(=O)N[C@@H](CCCNC(=N)N)C(=O)O [TAT-BH3] (Ac-RKKRR[Orn]RRREIWIAQELRRIGDEFNAYYAR-OH),ALT levels,[1]; [5],statistical difference
same,BUN levels,[1]; [5],statistical difference
same,increase in ALP levels,[1]; [6],1.7 fold
same,increase in AST levels,[1]; [6],1.5 fold
same,increase in ALP levels,[1]; as compared to saline,1.4 fold
same,increase in AST levels,[1]; as compared to saline,1.3 fold
same,liver histology,[1]; liver sections of arthritic mice,no gross histologic abnormalities
same,decrease in platelets,peripheral blood cells [2]; [6],29%
same,number of circulating leukocytes,peripheral blood cells [2]; [7],did not reduce
same,number of red blood cells,peripheral blood cells [2]; [7],did not reduce
same,decrease in numbers of neutrophils in peripheral blood,peripheral blood cells [2]; as compared to TAT-inactive peptide and saline,40%
same,decrease in platelets,peripheral blood cells [2]; as compared to saline,23%
same,effect on platelet counts,peripheral blood cells [2]; general statement,minimal effect
same,Platelets,peripheral blood cells [2]; [8],930.3 ± 55.32 (1E6)
same,RBCs,peripheral blood cells [2]; [8],9.60 ± 0.42 (1E6)
same,B-cells+,peripheral blood cells [2]; [9],2.51 ± 0.11 (1E6)
same,CD4+ T-cells,peripheral blood cells [2]; [9],1.25 ± 0.06 (1E6)
same,CD8+ T-cells,peripheral blood cells [2]; [9],0.86 ± 0.04 (1E6)
same,Inflammatory monocytes,peripheral blood cells [2]; [9],0.26 ± 0.03 (1E6)
same,N-K-cells,peripheral blood cells [2]; [9],0.23 ± 0.02 (1E6)
same,Resident Monocytes,peripheral blood cells [2]; [9],0.21 ± 0.02″ (1E6)
same,T-cells,peripheral blood cells [2]; [9],2.20 ± 0.10 (1E6)
same,Total Leukocytes,peripheral blood cells [2]; [9],6.2 ± 0.22 (1E6)
same,IL-1β,[3]; [10],522 ± 127
same,KC,[3]; [10],308 ± 78
same,MCP-1,[3]; [10],131 ± 28
same,MMP-3,[3]; [10],9 ± 3
same,TNFα,[3]; [10],4.5 ± 0.3
same,change in level of TNFα,[3]; vs saline or TAT-inactive BH3,no change
same,decrease in level of IL-1β,[3]; vs saline or TAT-inactive BH3,37%
same,levels of MMP-3 reduced,[3]; vs saline or TAT-inactive BH3,47%
same,production of KC diminished,[3]; vs saline or TAT-inactive BH3,28%
same,production of MCP-1 diminished,[3]; vs saline or TAT-inactive BH3,47%
same,number of splenocytes,peripheral blood cells [4],did not reduce
